Data: ChEMBL document CHEMBL6109094, “Anti-inflammatory agents design via the fragment hybrid strategy in the discovery of compound c1 for treating ALI and UC” (Eur J Med Chem, 2025)
Active and inactive are the calls of the source. No cut-off for these calls is given here.

Tests used:
RAW264.7 [1] = experiment: Anti-inflammatory activity in mouse RAW264.7 cells assessed as inhibition of LPS-induced IL-6 level at 10 uM preincubated for 30 mins followed by LPS addition measured after 24 hrs by ELISA relative to control; format: functional; details: time 24.5 hrs
RAW264.7 [2] = experiment: Anti-inflammatory activity in mouse RAW264.7 cells assessed as inhibition of LPS-induced IL-6 mRNA level preincubated for 2 hrs followed by LPS addition measured after 6 hrs by RT-qPCR analysis; format: functional, cell-based; details: dose 1-4 µM, time 8.0 hrs
[3] = molecular target: Mitogen-activated protein kinase 9 (Homo sapiens) (UniProt P45984); experiment: Inhibition of JNK2 (unknown origin) at 10 uM relative to control
[4] = molecular target: Mitogen-activated protein kinase 14 (Homo sapiens) (UniProt Q16539); experiment: Inhibition of p38-alpha (unknown origin) at 10 uM relative to control
Homo sapiens = organism: Homo sapiens; experiment: Inhibition of TAK1 (unknown origin) at 10 uM relative to control
Mus musculus [5] = experiment: Anti-inflammatory activity in C57BL/6 mouse model of LPS-induced ALI assessed as inhibition of IL-6 level in serum at 20 mg/kg, po measured after 6 hrs with administered on every 12 hrs followed by LPS treatment after 30 mins post-compound treatment by ELISA; format: functional, organism-based; details: time 6.5 hrs
Mus musculus [6] = experiment: Anti-inflammatory activity in C57BL/6 mouse model of LPS-induced ALI assessed as decrease in spleen weight at 20 mg/kg, po measured after 6 hrs with administered on every 12 hrs followed by LPS treatment after 30 mins post-compound treatment; format: functional, organism-based; details: time 6.5 hrs
Mus musculus [7] = experiment: Anti-inflammatory activity in C57BL/6 mouse model of LPS-induced ALI assessed as decrease in protein concentration in BALF at 20 mg/kg, po measured after 6 hrs with administered on every 12 hrs followed by LPS treatment after 30 mins post-compound treatment; format: functional, organism-based; details: time 6.5 hrs
Mus musculus [8] = experiment: (§1) Anti-inflammatory activity in C57BL/6 mouse model of LPS-induced ALI assessed as decrease in inflammatory cell infiltration in lung tissue at 20 mg/kg, po measured after 6 hrs with administered on every 12 hrs followed by LPS treatment after 30 mins post-compound treatment by H and E/IHC staining based analysis; format: functional, organism-based; details: time 6.5 hrs
Mus musculus [9] = experiment: as §1, with “thickening of alveolar septa” for “inflammatory cell infiltration”; format: functional, organism-based; details: time 6.5 hrs
Mus musculus [10] = experiment: as §1, with “thickening of interstitial edema” for “inflammatory cell infiltration”; format: functional, organism-based; details: time 6.5 hrs
Mus musculus [11] = experiment: Anti-inflammatory activity in C57BL/6 mouse model of DSS-induced ulcerative colitis assessed as colon length at 100 mg/kg, po administered for 8 days (reference value: 5.1 cm); format: functional, organism-based; details: time 8.0 day
Mus musculus [12] = experiment: Anti-inflammatory activity in C57BL/6 mouse model of DSS-induced ulcerative colitis assessed as decrease in fusion of white pulp of spleen administered orally for 8 days; format: functional, organism-based; details: dose 20-40 mg/kg, route po, time 8.0 day
Mus musculus [13] = experiment: Anti-inflammatory activity in C57BL/6 mouse model of DSS-induced ulcerative colitis assessed as decrease in macrophage population in red pulp of spleen administered orally for 8 days; format: functional, organism-based; details: dose 20-40 mg/kg, route po, time 8.0 day
[14] = Acute toxicity in C57BL/6 mouse assessed as change in body weight change at 100 to 200 mg/kg, po measured for 10 days; format: organism-based; details: in vivo, 240 h, dose 100-200 mg/kg, time 10 day
[15] = Acute toxicity in C57BL/6 mouse assessed as change in pathological change in heart at 100 to 200 mg/kg, po measured for 10 days by H and E staining based analysis; format: organism-based; details: in vivo, 240 h, dose 100-200 mg/kg, time 10 day
[16] = Acute toxicity in C57BL/6 mouse assessed as change in pathological change in spleen at 100 to 200 mg/kg, po measured for 10 days by H and E staining based analysis; format: organism-based; details: in vivo, 240 h, dose 100-200 mg/kg, time 10 day
[17] = AUC (0 to t) in Sprague-Dawley rat at 1 mg/kg, iv measured for 24 hrs; format: ADME, organism-based; details: in vivo
[18] = Tmax in Sprague-Dawley rat at 1 mg/kg, iv measured for 24 hrs; format: ADME, organism-based; details: in vivo
[19] = Half life in Sprague-Dawley rat at 1 mg/kg, iv measured for 24 hrs; format: ADME, organism-based; details: in vivo
[20] = Cmax in Sprague-Dawley rat at 1 mg/kg, iv measured for 24 hrs; format: ADME, organism-based; details: in vivo
[21] = Half life in Sprague-Dawley rat at 10 mg/kg, po measured for 24 hrs; format: ADME, organism-based; details: in vivo
[22] = Oral bioavailability in Sprague-Dawley rat at 10 mg/kg measured for 24 hrs; format: ADME, organism-based; details: in vivo
RAW264.7 [23] = experiment: cells; details: Mus musculus
Description: Anti-inflammatory activity in mouse RAW264.7 cells assessed as inhibition of LPS-induced TNF-alpha level preincubated for 30 mins followed by LPS addition measured after 24 hrs by ELISA

J774.A1 = experiment: cells; details: Mus musculus
Description: Anti-inflammatory activity in mouse J774.A1 cells assessed as inhibition of LPS-induced TNF-alpha level preincubated for 30 mins followed by LPS addition measured after 24 hrs by ELISA

THP-1 = experiment: cells; details: Homo sapiens
Description: Anti-inflammatory activity in human THP-1 cells assessed as inhibition of LPS-induced TNF-alpha level preincubated for 30 mins followed by LPS addition measured after 24 hrs by ELISA

Mitogen-activated protein kinase 14 (Homo sapiens), sequence (Q16539 whole entry): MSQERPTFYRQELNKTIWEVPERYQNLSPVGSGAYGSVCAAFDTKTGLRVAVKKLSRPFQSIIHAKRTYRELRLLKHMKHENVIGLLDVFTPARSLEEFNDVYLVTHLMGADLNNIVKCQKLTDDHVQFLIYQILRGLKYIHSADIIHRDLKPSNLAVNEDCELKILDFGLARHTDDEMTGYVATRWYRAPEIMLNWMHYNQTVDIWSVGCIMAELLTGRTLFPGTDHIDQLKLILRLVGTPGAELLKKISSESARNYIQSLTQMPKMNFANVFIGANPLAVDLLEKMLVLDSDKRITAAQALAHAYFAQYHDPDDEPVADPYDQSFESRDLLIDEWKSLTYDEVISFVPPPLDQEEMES
Mitogen-activated protein kinase 9 (Homo sapiens), sequence (P45984 whole entry, looked up): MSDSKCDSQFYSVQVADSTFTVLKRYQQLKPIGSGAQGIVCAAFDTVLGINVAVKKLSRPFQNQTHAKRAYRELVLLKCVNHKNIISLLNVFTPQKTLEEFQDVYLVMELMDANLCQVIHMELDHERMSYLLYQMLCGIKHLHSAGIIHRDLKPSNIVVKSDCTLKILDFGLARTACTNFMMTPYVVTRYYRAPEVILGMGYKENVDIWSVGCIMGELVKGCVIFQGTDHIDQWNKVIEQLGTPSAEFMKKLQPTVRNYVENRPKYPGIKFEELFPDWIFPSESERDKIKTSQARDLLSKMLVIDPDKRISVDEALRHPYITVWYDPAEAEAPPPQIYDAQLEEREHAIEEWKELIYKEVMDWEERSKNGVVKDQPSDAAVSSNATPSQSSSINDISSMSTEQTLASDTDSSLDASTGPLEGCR

## COc1cc2c(O[C@H]3CC[C@@H](N)CC3)ncnc2cc1OCc1cccc(Br)c1
RAW264.7 [1]
  inhibition at 10 µM: 73.6%
RAW264.7 [2]
  inhibition: Dose-dependent-effect
[3]
  inhibition: 2.49%
[4]
  inhibition: 31.4%
Homo sapiens
  inhibition: 4.42%
Mus musculus [5]
  inhibition: Active
Mus musculus [6]
  Activity: Active
Mus musculus [7]
  Activity: Active
Mus musculus [8]
  Activity: Active
Mus musculus [9]
  Activity: Active
Mus musculus [10]
  Activity: Active
Mus musculus [11]
  Activity: Active
Mus musculus [12]
  Activity: Dose-dependent-effect
Mus musculus [13]
  Activity: Dose-dependent-effect
[14]
  Activity: Non-toxic
[15]
  Activity: Non-toxic
[16]
  Activity: Non-toxic
[17]
  AUC(0-t) at 24 h: 7730 ng·h/mL
[18]
  Tmax: 4.8 min
[19]
  half-life: 106 min
[20]
  Cmax: 7280 ng/mL
[21]
  half-life: 180 min
[22]
  bioavailability: 5.5%
RAW264.7 [23]
  IC50: 1520 nM
J774.A1
  IC50: 1330 nM
THP-1
  IC50: 5.03 µM
